Converted amounts (≈) assume the structure as drawn.
Key:
Assay type in all cases: cell-based
[1] = tested on: S. epidermidis ATCC 12228; assay: MIC by agar dilution, S. epidermidis ATCC 12228; settings: Staphylococcus epidermidis, ATCC12228, 17 h; S. epidermidis ATCC 12228; agar dilution, Mueller-Hinton agar; read-out: Minimal Inhibitory Concentration (MIC)
Outline: (§1)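 Following inoculation at 10^6 CFU per ml onto agar containing two-fold compound dilutions, plates were incubated 17±1 hours at 35°-37° C.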

Staph. aureus C-5113 = assay: MIC by agar dilution, Staph. aureus C-5113; settings: Staphylococcus aureus, C5113, 17 h, Mueller-Hinton agar, read-out: Minimal Inhibitory Concentration (MIC)
Outline: as §1

K. pneumoniae NCTC 9632 = assay: MIC by agar dilution, K. pneumoniae NCTC 9632; settings: Klebsiella pneumoniae, NCTC9632, 17 h; K. pneumoniae NCTC 9632; agar dilution, Mueller-Hinton agar; read-out: Minimal Inhibitory Concentration (MIC)
Outline: as §1

M. morganii DY-1 = assay: MIC by agar dilution, M. morganii DY-1; settings: Morganella morganii, DY1, 17 h; M. morganii DY-1; agar dilution, Mueller-Hinton agar; read-out: Minimal Inhibitory Concentration (MIC)
Outline: as §1

E. coli No. 29 = assay: MIC by agar dilution, E. coli No. 29; settings: Escherichia coli, 17 h; E. coli No. 29; agar dilution, Mueller-Hinton agar; read-out: Minimal Inhibitory Concentration (MIC)
Outline: as §1

Ent. cloacae IFO 13535 = assay: MIC by agar dilution, Ent. cloacae IFO 13535; settings: Enterobacter cloacae, IFO13535, 17 h; Ent. cloacae IFO 13535; agar dilution, Mueller-Hinton agar; read-out: Minimal Inhibitory Concentration (MIC)
Outline: as §1

E. coli NIHJ JC-2 = assay: MIC by agar dilution, E. coli NIHJ JC-2; settings: Escherichia coli, NIHJJC2, 17 h; E. coli NIHJ JC-2; agar dilution, Mueller-Hinton agar; read-out: Minimal Inhibitory Concentration (MIC)
Outline: as §1

Staph. aureus C-5216 = assay: MIC by agar dilution, Staph. aureus C-5216; settings: Staphylococcus aureus, C5216, 17 h, Mueller-Hinton agar, read-out: Minimal Inhibitory Concentration (MIC)
Outline: as §1

Prov. stuartii IFO 12930 = assay: MIC by agar dilution, Prov. stuartii IFO 12930; settings: Providencia stuartii, IFO12930, 17 h, Mueller-Hinton agar, read-out: Minimal Inhibitory Concentration (MIC)
Outline: as §1

Staph. aureus ATCC 6538P = assay: MIC by agar dilution, Staph. aureus ATCC 6538P; settings: Staphylococcus aureus, ATCC6538P, 17 h; Staph. aureus ATCC 6538P; agar dilution, Mueller-Hinton agar; read-out: Minimal Inhibitory Concentration (MIC)
Outline: as §1

B. subtilis ATCC 6633 = assay: MIC by agar dilution, B. subtilis ATCC 6633; settings: Bacillus subtilis, ATCC6633, 17 h; B. subtilis ATCC 6633; agar dilution, Mueller-Hinton agar; read-out: Minimal Inhibitory Concentration (MIC)
Outline: as §1

Ent. aerogenes IFO 12979 = assay: MIC by agar dilution, Ent. aerogenes IFO 12979; settings: Klebsiella aerogenes, IFO12979, 17 h, Mueller-Hinton agar, read-out: Minimal Inhibitory Concentration (MIC)
Outline: as §1

Ps. aeruginosa DY-2 = assay: MIC by agar dilution, Ps. aeruginosa DY-2; settings: Pseudomonas aeruginosa, DY2, 17 h; Ps. aeruginosa DY-2; agar dilution, Mueller-Hinton agar; read-out: Minimal Inhibitory Concentration (MIC)
Outline: as §1

Staph. aureus Smith = assay: MIC by agar dilution, Staph. aureus Smith; settings: Staphylococcus aureus, 17 h, Mueller-Hinton agar, read-out: Minimal Inhibitory Concentration (MIC)
Outline: as §1

E. coli DY-1 = assay: MIC by agar dilution, E. coli DY-1; settings: Escherichia coli, DY1, 17 h; E. coli DY-1; agar dilution, Mueller-Hinton agar; read-out: Minimal Inhibitory Concentration (MIC)
Outline: as §1

P. vulgaris NCTC 8313 = assay: MIC by agar dilution, P. vulgaris NCTC 8313; settings: Proteus vulgaris, NCTC8313, 17 h; P. vulgaris NCTC 8313; agar dilution, Mueller-Hinton agar; read-out: Minimal Inhibitory Concentration (MIC)
Outline: as §1

[2] = tested on: Ps. aeruginosa ATCC 10145; assay: MIC by agar dilution, Ps. aeruginosa ATCC 10145; settings: Pseudomonas aeruginosa, ATCC10145, 17 h, Mueller-Hinton agar, read-out: Minimal Inhibitory Concentration (MIC)
Outline: as §1

[3] = tested on: Ps. aeruginosa NCTC 10490; assay: MIC by agar dilution, Ps. aeruginosa NCTC 10490; settings: Pseudomonas aeruginosa, NCTC10490, 17 h, Mueller-Hinton agar, read-out: Minimal Inhibitory Concentration (MIC)
Outline: as §1

Staph. aureus C-57 = assay: MIC by agar dilution, Staph. aureus C-57; settings: Staphylococcus aureus, C57, 17 h, Mueller-Hinton agar, read-out: Minimal Inhibitory Concentration (MIC)
Outline: as §1

[4] = tested on: Ser. marcescens IFO 12648; assay: MIC by agar dilution, Ser. marcescens IFO 12648; settings: Serratia marcescens, IFO12648, 17 h; Ser. marcescens IFO 12648; agar dilution, Mueller-Hinton agar; read-out: Minimal Inhibitory Concentration (MIC)
Outline: as §1

| SMILES | MIC [1] [µg/mL] | MIC (Staph. aureus C-5113) [µg/mL] | MIC (K. pneumoniae NCTC 9632) [µg/mL] | MIC (M. morganii DY-1) [µg/mL] | MIC (E. coli No. 29) [µg/mL] | MIC (Ent. cloacae IFO 13535) [µg/mL] | MIC (E. coli NIHJ JC-2) [µg/mL] | MIC (Staph. aureus C-5216) [µg/mL] | MIC (Prov. stuartii IFO 12930) [µg/mL] | MIC (Staph. aureus ATCC 6538P) [µg/mL] | MIC (B. subtilis ATCC 6633) [µg/mL] | MIC (Ent. aerogenes IFO 12979) [µg/mL] | MIC (Ps. aeruginosa DY-2) [µg/mL] | MIC (Staph. aureus Smith) [µg/mL] | MIC (E. coli DY-1) [µg/mL] | MIC (P. vulgaris NCTC 8313) [µg/mL] | MIC [2] [µg/mL] | MIC [3] [µg/mL] | MIC (Staph. aureus C-57) [µg/mL] | MIC [4] [µg/mL] |
| --- | --- | --- | --- | --- | --- | --- | --- | --- | --- | --- | --- | --- | --- | --- | --- | --- | --- | --- | --- | --- |
| CON=C(C(=O)NC1C(=O)N2C(C(=O)[O-])=C(C[n+]3ccn4c(C=O)ccc4c3)CSC12)c1csc(N)n1 (stereo not drawn) [Ex. 25, 7-β-[(Z)-2-(2-aminothiazol-4-yl)-2-methoxyiminoacetamido]-3-(6-formylpyrrolo[1,2-a]pyrazinium-2-yl)methyl-3-cephem-4-carboxylate] | 0.1 (≈ 0.185 µM) | 3.13 (≈ 5.78 µM) | 0.05 (≈ 0.0923 µM) | 0.05 (≈ 0.0923 µM) | 0.05 (≈ 0.0923 µM) | 0.78 (≈ 1.44 µM) | 0.025 (≈ 0.0462 µM) | 1.56 (≈ 2.88 µM) | 0.012 (≈ 0.0222 µM) | 0.78 (≈ 1.44 µM) | 0.39 (≈ 0.72 µM) | 0.025 (≈ 0.0462 µM) | 12.5 (≈ 23.1 µM) | 3.13 (≈ 5.78 µM) | 0.05 (≈ 0.0923 µM) | 0.05 (≈ 0.0923 µM) | 3.13 (≈ 5.78 µM) | 0.39 (≈ 0.72 µM) | 25 (≈ 46.2 µM) | 0.05 (≈ 0.0923 µM) |
| CCON=C(C(=O)NC1C(=O)N2C(C(=O)[O-])=C(C[n+]3ccn4c(C=O)ccc4c3)CSC12)c1csc(N)n1 (stereo not drawn) [Ex. 26, 7-β-[(Z)-2-(2-aminothiazol-4-yl)2-ethoxyiminoacetamido]-3-(6-formylpyrrolo[1,2-a]pyrazinium-2-yl)methyl-3-cephem-4-carboxylate] | 0.1 (≈ 0.18 µM) | 3.13 (≈ 5.63 µM) | 0.2 (≈ 0.36 µM) | 0.2 (≈ 0.36 µM) | 0.05 (≈ 0.09 µM) | 3.13 (≈ 5.63 µM) | 0.1 (≈ 0.18 µM) | 3.13 (≈ 5.63 µM) | 0.05 (≈ 0.09 µM) | 1.56 (≈ 2.81 µM) | 0.39 (≈ 0.702 µM) | 0.05 (≈ 0.09 µM) | 12.5 (≈ 22.5 µM) | 3.13 (≈ 5.63 µM) | 0.05 (≈ 0.09 µM) | 0.025 (≈ 0.045 µM) | 6.25 (≈ 11.2 µM) | 1.56 (≈ 2.81 µM) | 100 (≈ 180 µM) | 0.1 (≈ 0.18 µM) |
| CON=C(C(=O)NC1C(=O)N2C(C(=O)[O-])=C(C[n+]3ccn4c(SCCN)ccc4c3)CSC12)c1csc(N)n1 (stereo not drawn) [Ex. 27, 7-β-[(Z)-2-(2-aminothiazol-4-yl)2-methoxyiminoacetamido]-3-[6-(2-aminoethylthio)pyrrolo[1,2-a]pyrazinium-2-yl]methyl-3-cephem-4-carboxylate] | 0.05 (≈ 0.0849 µM) | 0.78 (≈ 1.32 µM) | 0.012 (≈ 0.0204 µM) | 0.012 (≈ 0.0204 µM) | ≤ 0.006 | 0.1 (≈ 0.17 µM) | ≤ 0.006 | 0.78 (≈ 1.32 µM) | ≤ 0.006 | 0.2 (≈ 0.34 µM) | 0.1 (≈ 0.17 µM) | ≤ 0.006 | 1.56 (≈ 2.65 µM) | 0.78 (≈ 1.32 µM) | ≤ 0.006 | ≤ 0.006 | 0.78 (≈ 1.32 µM) | 0.2 (≈ 0.34 µM) | 100 (≈ 170 µM) | 0.012 (≈ 0.0204 µM) |
| CCON=C(C(=O)NC1C(=O)N2C(C(=O)[O-])=C(C[n+]3ccn4c(SCCN)ccc4c3)CSC12)c1csc(N)n1 (stereo not drawn) [Ex. 28, 7-β-[(Z)-2-(2-aminothiazol-4-yl)2-ethoxyiminoacetamido]-3-[6-(2-aminoethylthio)pyrrolo[1,2-a]pyrazinium-2-yl]methyl-3-cephem-4-carboxylate] | 0.05 (≈ 0.083 µM) | 0.78 (≈ 1.29 µM) | 0.05 (≈ 0.083 µM) | 0.05 (≈ 0.083 µM) | 0.012 (≈ 0.0199 µM) | 0.2 (≈ 0.332 µM) | 0.025 (≈ 0.0415 µM) | 0.78 (≈ 1.29 µM) | 0.012 (≈ 0.0199 µM) | 0.2 (≈ 0.332 µM) | 0.1 (≈ 0.166 µM) | 0.012 (≈ 0.0199 µM) | 3.13 (≈ 5.19 µM) | 0.78 (≈ 1.29 µM) | 0.012 (≈ 0.0199 µM) | 0.012 (≈ 0.0199 µM) | 1.56 (≈ 2.59 µM) | 0.39 (≈ 0.647 µM) | 50 (≈ 83 µM) | 0.05 (≈ 0.083 µM) |

Source: US5593984A, “Cephalosporin derivatives” (Yuhan Corporation, priority 1992, dated 1997)
